Assay [1] deals with T1, P2X7 (Homo sapiens (Human), UniProt Q99572). Kind of assay: P2X7 antagonism in human PBMCs (LPS + Bz-ATP induced IL-1β release, ELISA).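 For all read-outs here: PBMCs from donor human blood, with a further 1.5 h incubation of the cells in the assay.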 The class given is cell-based. The conditions noted are these: LPS 30 ng/ml, Bz-ATP 0.5 mM; for PBMC 10 μM (% control): compound 10 μM.
The target of assay [2] is T1, P2X7. Kind of assay: Radioligand binding, tritiated A-804598, human P2X7-1321N1 cell membranes.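 Note: ki obtained from the binding IC50 after correction for tracer concentration and tracer affinity.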 The conditions noted are these: 1 hour at 4° C.
Method: (§1) On the day of the experiment, cell membrane preparations were made according to standard published methods. […] The assay was terminated by filtration (GF/B filters pre-soaked with 0.3% PEI) and washed with washing buffer (Tris-HCl 50 mM). The IC50 generated in the binding assay was corrected for tracer concentration and affinity of the tracer to derive at the affinity (Ki) of the test compounds.
Assay [3] has as its target T2, rat P2X7 (Rattus norvegicus (Rat), UniProt Q64663). Kind of assay: Radioligand binding, tritiated A-804598, rat P2X7-1321N1 cell membranes. Conditions: 1 hour at 4° C.
Method: as §1
The target in assay [4] is T1, P2X7. Briefly: Ca2+ flux (FLIPR) in 1321N1 cells expressing recombinant human P2X7 channel.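 Note: Calcium-4 dye-loaded cells exposed to compound for 30 min before agonist addition, fluorescence change read 180 s after agonist.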 It is filed as cell-based. Conditions: 250 μM BzATP.
For assay [5], the target named is T2, rat P2X7. Kind of assay: Ca2+ flux (FLIPR) in 1321N1 cells expressing recombinant rat P2X7 channel.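 Note: Calcium-4 dye fluorescence change read 180 s after agonist addition, following 30 min cell preincubation with test compound.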 The class given is cell-based. The conditions noted are these: 250 μM BzATP.
Assay [6] concerns the target T1, P2X7. Briefly: P2X7 antagonism in human whole blood (LPS + Bz-ATP induced IL-1β release, ELISA). It is filed as cell-based. The conditions noted are these: LPS 30 ng/ml, Bz-ATP 1 mM.
Method: Human blood was collected using a blood donor program. PBMCs were isolated from blood using a Ficoll density gradient technique. Briefly, blood was laid on Ficoll solution and centrifuged at RT for 20 minutes at 2000 rpm. The buffy layer (between red blood cells and plasma) was carefully collected by aspiration, washed with PBS and centrifuged again at 1500 rpm for 15 minutes. The resulting cell pellet was washed and plated on 96 well-plates for experiments. For the Mouse/Human Whole Blood experiments, 150 μl of either mouse or human blood was platted on 96 well-plates. Lipopolysaccharide (LPS) (30 ng/ml) was added to each well and incubated for 1 hour. Test compounds were then added and incubated for 30 minutes. The P2X7 agonist, 2′(3′)-O-(4-benzoylbenzoyl) adenosine 5′ triphosphate (Bz-ATP) was then added at a final concentration of 0.5 mM (PBMC) or 1 mM (blood). Cells were incubated for an additional 1.5 hours. At that point, supernatant was collected and stored for IL-1β assay using manufacturer's protocol for enzyme-linked immunosorbent assay (ELISA). Data was expressed as percent control, where control is defined as the difference in IL-1β release in LPS+Bz-ATP samples and LPS only samples. Data was plotted as response (% control) versus concentration to generate IC50 values.

SMILES strings stand for the structures. Some results are limits rather than exact numbers.

T1 sequence (Q99572 whole entry): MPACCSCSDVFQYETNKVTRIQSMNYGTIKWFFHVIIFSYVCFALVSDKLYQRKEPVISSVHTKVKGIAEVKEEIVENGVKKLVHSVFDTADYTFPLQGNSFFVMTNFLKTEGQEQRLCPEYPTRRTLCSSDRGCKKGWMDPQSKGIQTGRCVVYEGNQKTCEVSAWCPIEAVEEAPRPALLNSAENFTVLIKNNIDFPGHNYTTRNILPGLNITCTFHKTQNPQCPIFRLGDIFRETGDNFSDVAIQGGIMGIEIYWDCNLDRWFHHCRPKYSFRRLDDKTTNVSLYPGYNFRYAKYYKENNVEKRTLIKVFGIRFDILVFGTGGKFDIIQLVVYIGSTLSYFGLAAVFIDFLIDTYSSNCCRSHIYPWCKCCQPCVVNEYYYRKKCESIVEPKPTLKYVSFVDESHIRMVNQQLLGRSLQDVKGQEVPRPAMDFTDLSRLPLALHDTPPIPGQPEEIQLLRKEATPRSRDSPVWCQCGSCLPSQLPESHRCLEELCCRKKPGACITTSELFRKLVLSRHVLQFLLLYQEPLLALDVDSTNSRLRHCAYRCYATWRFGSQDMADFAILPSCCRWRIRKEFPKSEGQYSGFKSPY
T2 sequence (Q64663 whole entry): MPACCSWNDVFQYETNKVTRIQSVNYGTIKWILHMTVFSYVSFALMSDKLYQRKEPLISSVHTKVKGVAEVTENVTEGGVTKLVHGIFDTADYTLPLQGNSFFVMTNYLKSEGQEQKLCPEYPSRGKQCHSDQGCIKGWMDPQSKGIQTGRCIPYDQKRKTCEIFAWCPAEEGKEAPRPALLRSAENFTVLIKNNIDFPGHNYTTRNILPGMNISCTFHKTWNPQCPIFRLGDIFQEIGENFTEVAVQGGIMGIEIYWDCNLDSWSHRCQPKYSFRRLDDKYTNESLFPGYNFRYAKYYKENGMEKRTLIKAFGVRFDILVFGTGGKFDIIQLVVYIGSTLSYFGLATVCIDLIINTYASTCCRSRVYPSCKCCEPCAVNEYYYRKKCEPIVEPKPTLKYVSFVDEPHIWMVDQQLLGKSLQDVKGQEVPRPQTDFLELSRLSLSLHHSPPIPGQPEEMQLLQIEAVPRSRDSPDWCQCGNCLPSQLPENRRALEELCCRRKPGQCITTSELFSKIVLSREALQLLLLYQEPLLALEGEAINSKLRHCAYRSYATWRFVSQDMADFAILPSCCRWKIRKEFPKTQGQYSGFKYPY

For the compound `C[C@H]1c2nnn(-c3ccn(C)n3)c2CCN1C(=O)c1cccc(C(F)(F)F)c1Cl` (single isomer, unassigned) [Example 170, (S*)-(2-Chloro-3-(trifluoromethyl)phenyl)(4-methyl-1-(1-methyl-1H-pyrazol-3-yl)-6,7-dihydro-1H-[1,2,3]triazolo[4,5-c]pyridin-5(4H)-yl)methanone], the “PBMC 10 μM (% control)” value at P2X7 [1] is −5.7 % control. Moreover, the Ki on P2X7 [2] was 20 nM; on rat P2X7 [3], 3.2 nM. In addition, the IC50 at P2X7 [4] amounted to 8.9 nM; on rat P2X7 [5], 10.2 nM.

Consider `C[C@H]1c2nnn(-c3ccn(CCF)n3)c2CCN1C(=O)c1cccc(C(F)(F)F)c1Cl` (single isomer, unassigned) [Example 172, (S*)-(2-Chloro-3-(trifluoromethyl)phenyl)(1-(1-(2-fluoroethyl)-1H-pyrazol-3-yl)-4-methyl-6,7-dihydro-1H-[1,2,3]triazolo[4,5-c]pyridin-5(4H)-yl)methanone], for which the “PBMC 10 μM (% control)” value on P2X7 [1] is recorded as −6.0 % control. Also, at rat P2X7 [3], the affinity corresponds to a Ki of 5 nM. Further, the half-inhibitory concentration (IC50) at rat P2X7 [5] stood at 5.4 nM.

With `O=C(c1cccc(C(F)(F)F)c1F)N1CCc2c(nnn2-c2ncccn2)C1` [Example 66, 5-{[2-Fluoro-3-(trifluoromethyl)phenyl]carbonyl}-1-pyrimidin-2-yl-4,5,6,7-tetrahydro-1H-[1,2,3]triazolo[4,5-c]pyridine], the “PBMC 10 μM (% control)” value at P2X7 [1] was determined as 2.7 % control. Further, at P2X7 [2], the Ki turned out to be 15.8 nM. Besides, the half-maximal inhibitory concentration (IC50) is 17.4 nM on P2X7 [4], 206 nM on rat P2X7 [5] and 363 nM at P2X7 [6].

With `O=C(c1cccc(Cl)c1Cl)N1CCc2c(nnn2-c2ncccn2)C1` [Example 67, 5-[(2,3-Dichlorophenyl)carbonyl]-1-pyrimidin-2-yl-4,5,6,7-tetrahydro-1H-[1,2,3]triazolo[4,5-c]pyridine], the “PBMC 10 μM (% control)” value on P2X7 [1] was 6.5 % control. Further, the Ki at P2X7 [2] is 7.9 nM. In addition, the results for the IC50 at P2X7 [4], on rat P2X7 [5] and on P2X7 [6] were 3 nM, 78.9 nM and 158 nM, respectively.

For `O=C(c1cccc(Cl)c1Cl)N1CCc2c(nnn2-c2cnccn2)C1` [Example 70, 5-[(2,3-Dichlorophenyl)carbonyl]-1-pyrazin-2-yl-4,5,6,7-tetrahydro-1H-[1,2,3]triazolo[4,5-c]pyridine], the “PBMC 10 μM (% control)” value at P2X7 [1] worked out at 10.6 % control. Also, the affinity at P2X7 [2] corresponds to a Ki of 12.6 nM. In addition, the results for the IC50 on P2X7 [4], at rat P2X7 [5] and at P2X7 [6] were 7.5 nM, 1330 nM and 501 nM, respectively.

On to `O=C(c1cccc(C(F)(F)F)c1Cl)N1CCc2c(-c3ccccc3)n[nH]c2C1` [Example 99, (2-Chloro-3-(trifluoromethyl)phenyl)(3-phenyl-4,5-dihydro-1H-pyrazolo[3,4-c]pyridin-6(7H)-yl)methanone], for which, on P2X7 [1] (compound 1 μM), the “PBMC 1 μM (% control)” value is given as 7.0 % control. Besides, the Ki at P2X7 [2] worked out at 81.3 nM; on rat P2X7 [3], 741 nM. The half-maximal inhibitory concentration (IC50) worked out at 11.5 nM on P2X7 [4] and 195 nM on rat P2X7 [5].

In the case of `O=C(c1ccc(F)c(Cl)c1Cl)N1CCc2c(nnn2-c2ccccn2)C1` [Example 130, (2,3-Dichloro-4-fluorophenyl)(1-(pyridin-2-yl)-6,7-dihydro-1H-[1,2,3]triazolo[4,5-c]pyridin-5(4H)-yl)methanone], the “PBMC 10 μM (% control)” value at P2X7 [1] turned out to be 3.7 % control. The affinity on P2X7 [2], expressed as Ki, was 50.1 nM. The figures for the IC50 at P2X7 [4], on rat P2X7 [5] and on P2X7 [6] were 3.6 nM, 154 nM and 501 nM, respectively.

As to `O=C(c1cccc(C(F)(F)F)c1Cl)N1CCc2c(nnn2-c2cc(F)ccn2)C1` [Example 131, (2-Chloro-3-(trifluoromethyl)phenyl)(1-(4-fluoropyridin-2-yl)-6,7-dihydro-1H-[1,2,3]triazolo[4,5-c]pyridin-5(4H)-yl)methanone], on P2X7 [1], the “PBMC 10 μM (% control)” value is recorded as 8.3 % control. At P2X7 [2], this compound had a Ki of 50.1 nM. For the same compound, the half-inhibitory concentration (IC50) on P2X7 [4] was determined as 2.9 nM; at rat P2X7 [5], 51.5 nM; at P2X7 [6] it was 316 nM.

For `CC1c2nnn(-c3ncccn3)c2CCN1C(=O)c1ccc(Cl)cc1F` (centres unmarked) [Example 275, (4-chloro-2-fluorophenyl)(4-methyl-1-(pyrimidin-2-yl)-6,7-dihydro-1H-[1,2,3]triazolo[4,5-c]pyridin-5(4H)-yl)methanone], the “PBMC 10 μM (% control)” value on P2X7 [1] is on record as −8.3 % control. For the same compound, the inhibition constant Ki at P2X7 [2] is 24.5 nM. Besides, the IC50 at P2X7 [4] amounted to 46.9 nM; on rat P2X7 [5] it was 673 nM.

For `Cc1c(C(=O)N2CCc3c(nnn3-c3cnccn3)C2)cccc1C(F)(F)F` [Example 276, (2-methyl-3-(trifluoromethyl)phenyl)(1-(pyrazin-2-yl)-6,7-dihydro-1H-[1,2,3]triazolo[4,5-c]pyridin-5(4H)-yl)methanone], on P2X7 [1], the “PBMC 10 μM (% control)” value is −0.9 % control. The compound further registered a Ki at P2X7 [2] of 5.8 nM. Moreover, the IC50 was 6.4 nM on P2X7 [4] and 869 nM at rat P2X7 [5].

In the case of `Cc1c(C(=O)N2CCc3c(nnn3-c3cnccn3)C2C)cccc1C(F)(F)F` (centres unmarked) [Example 278, (4-methyl-1-(pyrazin-2-yl)-6,7-dihydro-1H-[1,2,3]triazolo[4,5-c]pyridin-5(4H)-yl)(2-methyl-3-(trifluoromethyl)phenyl)methanone], on P2X7 [1], the “PBMC 10 μM (% control)” value is recorded as −19.5 % control. This compound displayed a Ki at P2X7 [2] of 12.6 nM. Also, the IC50 on P2X7 [4] was found to be 7.2 nM; on rat P2X7 [5], 92.3 nM.

Take `CC1c2nnn(-c3cnccn3)c2CCN1C(=O)c1ccc(Cl)cc1Cl` (centres unmarked) [Example 279, (2,4-dichlorophenyl)(4-methyl-1-(pyrazin-2-yl)-6,7-dihydro-1H-[1,2,3]triazolo[4,5-c]pyridin-5(4H)-yl)methanone]: at P2X7 [1], the “PBMC 10 μM (% control)” value was −16.9 % control. This compound yielded an inhibition constant Ki on P2X7 [2] of 11.5 nM. In addition, the IC50 was 8.6 nM on P2X7 [4] and 438 nM on rat P2X7 [5].

For `O=C(c1ccc(Cl)cc1F)N1CCc2c(nnn2-c2ncccn2)C1` [Example 280, (4-chloro-2-fluorophenyl)(1-(pyrimidin-2-yl)-6,7-dihydro-1H-[1,2,3]triazolo[4,5-c]pyridin-5(4H)-yl)methanone], the “PBMC 10 μM (% control)” value at P2X7 [1] amounted to 3.4 % control. On P2X7 [2], the inhibition constant Ki stood at 63.1 nM. Moreover, the half-inhibitory concentration (IC50) was found to be 568 nM at P2X7 [4] and 1230 nM at rat P2X7 [5].

With `Cc1c(C(=O)N2CCc3c(nnn3-c3ncccn3)C2)cccc1C(F)(F)F` [Example 281, (2-methyl-3-(trifluoromethyl)phenyl)(1-(pyrimidin-2-yl)-6,7-dihydro-1H-[1,2,3]triazolo[4,5-c]pyridin-5(4H)-yl)methanone], the “PBMC 10 μM (% control)” value at P2X7 [1] is on record as −1.9 % control. This compound also displayed a Ki at P2X7 [2] of 2.3 nM. In addition, the results for the IC50 on P2X7 [4] and on rat P2X7 [5] were 3.1 nM and 163 nM, respectively.

Regarding `CC1c2nnn(-c3ncccn3)c2CCN1C(=O)c1ccc(Cl)cc1Cl` (centres unmarked) [Example 283, (2,4-dichlorophenyl)(4-methyl-1-(pyrimidin-2-yl)-6,7-dihydro-1H-[1,2,3]triazolo[4,5-c]pyridin-5(4H)-yl)methanone], the “PBMC 10 μM (% control)” value on P2X7 [1] is recorded as −6.3 % control. The inhibition constant (Ki) on P2X7 [2] came to 6.3 nM. Moreover, the IC50 on P2X7 [4] was 4.7 nM; at rat P2X7 [5], 192 nM.

Take `Cc1cc(C)nc(-n2nnc3c2CCN(C(=O)c2cccc(C(F)(F)F)c2Cl)C3C)c1` (centres unmarked) [Example 300, (2-chloro-3-(trifluoromethyl)phenyl)(1-(4,6-dimethylpyridin-2-yl)-4-methyl-6,7-dihydro-1H-[1,2,3]triazolo[4,5-c]pyridin-5(4H)-yl)methanone]: the “PBMC 10 μM (% control)” value at P2X7 [1] is recorded as −1.8 % control. Moreover, affinity at P2X7 [2] was put at a Ki of 398 nM. The IC50 at P2X7 [4] was determined as 171 nM; on rat P2X7 [5], 20200 nM.

Consider `Cc1cccc(-n2nnc3c2CCN(C(=O)c2cccc(C(F)(F)F)c2Cl)C3C)n1` (centres unmarked) [Example 302, (2-chloro-3-(trifluoromethyl)phenyl)(4-methyl-1-(6-methylpyridin-2-yl)-6,7-dihydro-1H-[1,2,3]triazolo[4,5-c]pyridin-5(4H)-yl)methanone], for which the “PBMC 10 μM (% control)” value at P2X7 [1] is −2.8 % control. Moreover, the affinity at P2X7 [2], expressed as Ki, was 31.6 nM. The IC50 on P2X7 [4] was determined as 11.6 nM; at rat P2X7 [5], 14.3 nM.

Take `CCc1nc2c(n1-c1ccccc1)CCN(C(=O)c1cccc(Cl)c1Cl)C2` [Example 332, (2,3-dichlorophenyl)(2-ethyl-1-phenyl-6,7-dihydro-1H-imidazo[4,5-c]pyridin-5(4H)-yl)methanone]: the “PBMC 10 μM (% control)” value at P2X7 [1] is listed as −9.5 % control. On P2X7 [2], this compound registered a Ki of 631 nM. Besides, the values for the half-maximal inhibitory concentration (IC50) on P2X7 [4] and at rat P2X7 [5] were 217 nM and 3720 nM, respectively.

In the case of `C[C@H]1c2nnn(-c3cncnc3)c2CCN1C(=O)c1cccc(C(F)(F)F)c1Cl` [Example 333, (S)-(2-chloro-3-(trifluoromethyl)phenyl)(4-methyl-1-(pyrimidin-5-yl)-6,7-dihydro-1H-[1,2,3]triazolo[4,5-c]pyridin-5(4H)-yl)methanone], the “PBMC 10 μM (% control)” value on P2X7 [1] is 6.9 % control. Moreover, the affinity at P2X7 [2], expressed as Ki, was 63.1 nM. In addition, the 50% inhibitory concentration (IC50) at P2X7 [4] is 101 nM; at rat P2X7 [5], greater than 10000 nM.

Regarding `Cc1ccc(-n2nnc3c2CCN(C(=O)c2cccc(Cl)c2Cl)C3C)nc1` (centres unmarked) [Example 336, (2,3-dichlorophenyl)(4-methyl-1-(5-methylpyridin-2-yl)-6,7-dihydro-1H-[1,2,3]triazolo[4,5-c]pyridin-5(4H)-yl)methanone], at P2X7 [1], the “PBMC 10 μM (% control)” value is given as −0.5 % control. This compound also had an inhibition constant (Ki) on P2X7 [2] of 372 nM. Also, the concentration for half-maximal inhibition (IC50) on P2X7 [4] is 289 nM; at rat P2X7 [5], 2160 nM.

(Values after patent publication US9464084B2, “P2X7 modulators” (Janssen Pharmaceutica NV, priority 2013, dated 2016).)
